# Experimental data: patent publication US11246858B2, “Immunoresponsive methods of treating tumors” (Institut Pasteur de Montevideo, priority 2017, dated 2022)
# * marks the point of attachment. Cbz = O=C(OCc1ccccc1)*; CH2F = FC*
# Assays:
# [1] = system: IL-1β secretion; test: IL-1β secretion by LPS-primed, stimulated WT and TORID KO BMDCs (ELISA); type: cell-based, mouse; conditions: for IL-1β secretion: WT and TORID KO BMDCs primed with LPS, stimulated with ATP
# Experimental: The study shown in FIG. 8 was performed by priming WT and TORID KO mice bone marrow-derived dendritic cells (BMDCs) with 0.25 μg/mL lipopolysaccharide (LPS) for four hours. The BMDCs were then washed and treated with different doses of ATP, Nigericin, and aluminum for 45 minutes as shown in the left column of bar graphs. Alternatively, 0.5 mg/mL ATP, 2.5 μg/mL Nigericin, or 500 μg/mL aluminum were used at different time points as indicated in the right column of bar graphs. IL-1β was quantified by ELISA in the culture supernatant.
# The experiment was performed on wildtype and TORID KO mice BMDCs primed with LPS for 3 hours. The BMDCs were subsequently treated with nigericin, ATP, or aluminum for 45 minutes. […] Caspase 1 activation was quantified by FACS using Flica 1 reagent. […] Z-WEHD-FMK was used as the caspase 1 inhibitor, and IL-1β levels were quantified by ELISA in the supernatant of the cell culture stimulated with the indicated compounds.
# Inflammasome activation is also associated with an increase of cytosolic Ca^2+. […] Data in this study was generated by loading Ca^2+ sensitive probe Fura-2 in wild type and TORID KO mice BMDCs after priming the BMDCs for three hours with LPS. The cells were exposed to 0.5 mM ATP to elicit inflammasome activation. The cells were excited with a UV laser at 350 nm. Absorbance at 340 nm and 380 nm were recorded in a time lapse manner. As shown in the top illustrations, the TORID KO BMDCs show a higher level of cytosolic Ca^2+. Moreover, IL-1β levels were higher with the TORID KO BMDCs. BAPTA-AM was used to chelate cytosolic Ca^2+.
# Potassium (K^+) efflux is also linked to inflammasome activation. In the study shown in FIG. 11, IL-1β synthesis resulting from K^+ was tested. This study was performed on wild type and TORID KO mouse BMDCs treated with LPS and ATP as in the previously described studies herein. Culture medium was replaced by saline buffer containing normal low levels of K^+ (5 mM, K+) or high levels of K^+ (120 mM; K+++). IL-1β was quantified by ELISA in the culture supernatant. As shown in the top graph of FIG. 11, IL-1β levels were higher in the TORID KO mice. […] The results therefore support pharmacological use of TIs to promote inflammasome activation by triggering Ca^2+-activated K^+ channels.
# [2] = system: TORID; test: TORID activity by ANG-2 probe fluorescence (flow cytometry) in transfected CHO cells; type: cell-based
# Experimental: As shown in FIG. 14 Chinese hamster ovarian (CHO) cells were transfected with TORID and Tmem176a and incubated for 24 hours. The cells were subsequently loaded with ANG-2 probe for 30 min RT, washed, and then incubated with (+)-BAY […] or (i)-BAY […] for 30 min. The cells were then analyzed by flow cytometry to evaluate TORID activity. Activity was measured by comparing fluorescence of the ANG-2 probe in TORID+ cells incubated with BAY […] (blue) to the control (red). TORID activity measure as the ANG-2 mean fluorescent intensity (MFI) in normal medium 0(-), 5(+), or 10(++) uM. […] FIG. 15 illustrates analysis of the ANG-2 mean fluorescent intensity (MFI) in normal medium of TORID exposed to BAY […] concentrations of 0 uM (-), 5 uM (+) or 10 uM (++). […] In all cases fluorescence intensity from ANG-2-loaded cells cultured in […] buffer was subtracted.
# [3] = system: EG7.OVA cancer cells; test: EG7.OVA tumor-bearing wild type mice treated with BAY K8644; type: in vivo; conditions: EG7.OVA s.c., i.p. daily day 3 to day 15, vs control vehicle
# Experimental: Data from in vivo studies depicted in FIG. 16 confirm the effect of pharmacologic inhibition of TORID on tumor growth. The study was performed on wild type mice injected subcutaneously with EG7.OVA cancer cells. Three days after inoculating the wild type mice with EG7.OVA tumor cells, Bay K8644 or a control vehicle, such as ethanol, were injected intraperitoneally daily up to the fifteenth day after tumor cell inoculation.
# [4] = system: EG7.OVA cells; test: EG7.OVA tumor in caspase 1/11 active and caspase 1/11 KO mice treated with BAY K8644; type: in vivo; conditions: 4 mg/kg i.p. daily day 3 to day 15
# Source text: FIG. 17 further confirms the results from FIG. 16 and the proposed mechanism depicted in FIG. 6. Data shown in FIG. 17 was gathered from caspase 1/11 active mice (1/11^+/+) and caspase 1/11 KO mice (1/11^−/−) injected with EG7.OVA cells.
# [5] = system: EG7 and MC38 tumors; test: Survival of mice with EG7 and MC38 tumors treated with anti-PD-1 alone or anti-PD-1+Bayk8644; type: in vivo; conditions: anti-PD-1 resistant mice; two tumor types (EG7, MC38); anti-PD-1+BAY K8644 vs anti-PD-1 alone
molecule,measurement,setting,value
CC(=O)OCOC(=O)CN(CC(=O)OCOC(C)=O)c1ccccc1OCCOc1ccccc1N(CC(=O)OCOC(C)=O)CC(=O)OCOC(C)=O [BAPTA-AM],IL-1β secretion,[1],completely blocked IL-1β secretion
"COC(=O)C1=C(C)NC(C)=C([N+](=O)[O-])C1c1ccccc1C(F)(F)F (stereo not shown) [BAY K8644, Methyl 2,6-dimethyl-5-nitro-4-[2-(trifluoromethyl)phenyl]-1,4-dihydropyridine-3-carboxylate]",TORID activity versus BAY K8644 concentration,"[2]; 0, 5 or 10 uM in normal medium, Na-free buffer signal subtracted",dose proportional response
same,TORID activity (ANG-2 mean fluorescent intensity),"[2]; CHO cells transfected with TORID and Tmem176a, 30 min incubation, vs control",inhibits TORID activity
same,disease-free survival rates,[3],increased
same,overall rates of survival vs negative control group not injected,[4],higher
same,survival rate in caspase 1/11 KO vs caspase 1/11 active mice,[4],lowered the survival rate
same,rate of survival,[5],higher rate of survival
"CCN(CCO)CCCC(C)Nc1ccnc2cc(Cl)ccc12 (stereo not shown) [HCQ, hydroxychloroquine]",IL-1β secretion,[1],mimicked iberiotoxin in controlling IL-1β secretion
Cbz-WEHD-CH2F,IL-1β levels in culture supernatant,"[1]; BMDCs primed with LPS 3 hours, then nigericin, ATP or aluminum, caspase 1 inhibition",lower levels of IL-1β
"iberiotoxin: BKCa KCa1.1 specific inhibitor (QFTDVDCSVSKECWSVCKDLFGVDRGKCMGKKCRCYQ; UniProt P24663 1-37, looked up)",IL-1β secretion,[1],blocked IL-1beta secretion
